Values quoted from earlier work as cited in US7309714B2, “Phenylalanine derivatives as dipeptidyl peptidase inhibitors for the treatment or prevention of diabetes” (Merck & Co., Inc., priority 2003, dated 2007).

Columns and labels:
cardiac allograft = details: rats; survival doubled from day 7 to day 14
hematopoiesis = details: mouse, cyclophosphamide-induced neutropenia
DP-IV = target: T1, DP-IV (Homo sapiens, UniProt P27487)
T1 construct: GRF is rapidly degraded in plasma to GRF[3-44]; from tissue
T1 sequence (P27487 whole entry): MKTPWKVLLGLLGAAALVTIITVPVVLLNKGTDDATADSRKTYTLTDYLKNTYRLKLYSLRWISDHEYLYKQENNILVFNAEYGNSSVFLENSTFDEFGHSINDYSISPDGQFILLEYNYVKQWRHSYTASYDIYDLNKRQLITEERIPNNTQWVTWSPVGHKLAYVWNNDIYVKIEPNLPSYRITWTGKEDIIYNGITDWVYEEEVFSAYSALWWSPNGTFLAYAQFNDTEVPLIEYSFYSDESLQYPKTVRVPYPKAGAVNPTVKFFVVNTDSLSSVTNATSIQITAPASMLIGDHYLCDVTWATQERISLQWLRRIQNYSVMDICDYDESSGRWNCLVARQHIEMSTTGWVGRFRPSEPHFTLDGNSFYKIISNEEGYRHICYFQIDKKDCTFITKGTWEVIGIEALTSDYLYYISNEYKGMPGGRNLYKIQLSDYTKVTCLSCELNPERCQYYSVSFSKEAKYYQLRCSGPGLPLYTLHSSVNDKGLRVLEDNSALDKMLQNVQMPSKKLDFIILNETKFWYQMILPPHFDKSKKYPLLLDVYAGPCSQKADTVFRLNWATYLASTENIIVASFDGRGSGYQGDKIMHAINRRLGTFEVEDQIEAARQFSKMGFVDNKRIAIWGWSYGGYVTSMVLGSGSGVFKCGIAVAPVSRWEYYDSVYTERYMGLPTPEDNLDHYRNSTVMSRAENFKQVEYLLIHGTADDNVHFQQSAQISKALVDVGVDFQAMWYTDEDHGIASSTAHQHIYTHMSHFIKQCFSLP

CC(C)N1CCC(c2ccccc2)(c2ccccc2)CC1 [Prodipine, Pro-Pro-diphenyl-phosphonate]
cardiac allograft survival (cardiac allograft): 14 day

CC(C)[C@H](N)C(=O)N1CCC[C@H]1B(O)O [Val-Boro-Pro]
effect on hematopoiesis (hematopoiesis): stimulated hematopoiesis

CC[C@H](C)[C@H](N)C(=O)N1CCC[C@H]1C(=O)N[C@H](C(=O)O)[C@@H](C)CC [diprotin A]
effect on degradation of GRF to GRF[3-44] in plasma (DP-IV): prevented
